Where two headings read alike, the source gives them in different places.
Experiments:
[1] = target: Recombinant human BACE-1 (Homo sapiens (Human), UniProt P56817); test: Assay of β-secretase-inhibiting activity
[2] = Solubility test; format: physicochemical; details: pH 1.2, simulated gastric fluid, kinetic from dmso stock; JP-I medium, turbidity after 4 hours
Experimental: A 2-fold dilution series (12 points) of a 10 mM solution of a test compound in DMSO was added to a medium (JP-I, JP-II) (2%), and solubility was assessed by 3 stages (High; >40 Medium; 3-40 μM, Low; <3 μM) from a turbidity after 4 hours (crystallization information).

[3] = Recombinant human BACE-1 7.4 nM, substrate peptide 18 nM, pH 5.0, 30° C. 3 hours

Chain of Recombinant human BACE-1 (P56817 46-501): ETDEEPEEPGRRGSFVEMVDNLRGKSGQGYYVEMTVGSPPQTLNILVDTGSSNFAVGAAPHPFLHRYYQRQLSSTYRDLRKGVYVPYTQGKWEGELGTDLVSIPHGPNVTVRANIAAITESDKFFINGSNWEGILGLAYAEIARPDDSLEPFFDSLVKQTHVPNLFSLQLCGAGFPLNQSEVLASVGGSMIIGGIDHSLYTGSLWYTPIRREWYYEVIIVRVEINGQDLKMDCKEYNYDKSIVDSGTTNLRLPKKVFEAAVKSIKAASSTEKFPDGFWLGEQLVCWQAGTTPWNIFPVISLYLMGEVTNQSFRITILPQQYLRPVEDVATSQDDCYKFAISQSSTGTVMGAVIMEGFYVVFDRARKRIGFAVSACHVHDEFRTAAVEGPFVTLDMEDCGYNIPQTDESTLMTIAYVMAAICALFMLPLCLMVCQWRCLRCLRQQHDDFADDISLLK

SMILES	IC50 [1, 3]	IC50 [1]	further results
COc1cnc(C(=O)Nc2cccc(C3(C(F)(F)F)CCSC(N)=N3)c2)cn1 (stereo not shown) [Compound 48]	273 nM		
C#CCOc1cnc(C(=O)Nc2cccc(C3(C(F)(F)F)CCSC(N)=N3)c2)cn1 (stereo not shown) [Compound 49]		≤ 1000 nM	
C=C1C[C@@](C)(c2cc(NC(=O)c3ccc(C#N)cn3)ccc2F)N=C(N)S1 [Compound 50]		≤ 1000 nM	
C=C1C[C@@](C)(c2cc(NC(=O)c3cnc(OC)cn3)ccc2F)N=C(N)S1 [Compound 51]	16 nM		
C=C1C[C@@](C)(c2cc(NC(=O)c3ncc(Cl)cc3Cl)ccc2F)N=C(N)S1 [Compound 52]		≤ 1000 nM	
C=C1C[C@@](C)(c2cc(NC(=O)c3cnc(C)cn3)ccc2F)N=C(N)S1 [Compound 53]	76 nM		
C[C@@]1(c2cc(NC(=O)c3ccc(C#N)cn3)ccc2F)C/C(=C/CO)SC(N)=N1 [Compound 54]		≤ 1000 nM	
CC(C)(O)/C=C1/C[C@@](C)(c2cc(NC(=O)c3ccc(C#N)cn3)ccc2F)N=C(N)S1 [Compound 55]		≤ 1000 nM	
NC1=NC(c2cccc(F)c2)(c2cccc(NC(=O)c3ncc(Cl)cc3Cl)c2)CS1 (stereo not shown) [Compound 56]	352 nM		
NC1=NC(c2ccc(OC(F)(F)F)cc2)(c2cccc(NC(=O)c3ncc(Cl)cc3Cl)c2)CS1 (stereo not shown) [Compound 57]		≤ 1000 nM	
COc1ccc(C2(c3cccc(NC(=O)c4ncc(Cl)cc4Cl)c3)CSC(N)=N2)cc1O (stereo not shown) [Compound 58]	186 nM		
C[C@@]1(c2cc(NC(=O)c3ncc(C#N)cc3Cl)ccc2F)C=CSC(N)=N1 [Compound 59]	19 nM		
Cn1ccnc1COc1cnc(C(=O)Nc2ccc(F)c([C@]3(C)C=CSC(N)=N3)c2)cn1 [Compound 60]	243 nM		solubility at 4 h [2]: > 40 µM
C[C@@]1(c2cc(NC(=O)c3cnc(OCc4ncc[nH]4)cn3)ccc2F)C=CSC(N)=N1 [Compound 61]	169 nM		
C[C@@]1(c2cc(NC(=O)c3cnc(NS(C)(=O)=O)cn3)ccc2F)C=CSC(N)=N1 [Compound 66]	296 nM		
C[C@@]1(c2cc(NC(=O)c3cnc(-n4ccnn4)cn3)ccc2F)C=CSC(N)=N1 [Compound 72]	250 nM		
C[C@@]1(c2cc(NC(=O)c3cnc(-n4nccn4)cn3)ccc2F)C=CSC(N)=N1 [Compound 73]	234 nM		
Cc1ncn(-c2cnc(C(=O)Nc3ccc(F)c([C@]4(C)C=CSC(N)=N4)c3)cn2)n1 [Compound 74]		≤ 1000 nM	

SMILES	IC50 [1, 3]	IC50 [1]	further results
Cc1ncnn1-c1cnc(C(=O)Nc2ccc(F)c([C@]3(C)C=CSC(N)=N3)c2)cn1 [Compound 75]	697 nM		
C[C@@]1(c2cc(NC(=O)c3ccc(F)cn3)ccc2F)C=CSC(N)=N1 [Compound 76]	62 nM		
C[C@@]1(c2cc(NC(=O)c3ncc(F)cc3F)ccc2F)C=CSC(N)=N1 [Compound 77]		≤ 1000 nM	
C[C@@]1(c2cc(NC(=O)c3ncc(C#N)cn3)ccc2F)C=CSC(N)=N1 [Compound 78]		≤ 1000 nM	
C[C@@]1(c2cc(NC(=O)c3ncc(Br)cn3)ccc2F)C=CSC(N)=N1 [Compound 79]	24 nM		
C[C@@]1(c2cc(NC(=O)c3ncc(Cl)cn3)ccc2F)C=CSC(N)=N1 [Compound 80]		≤ 1000 nM	
Cc1c(C(=O)Nc2ccc(F)c([C@]3(C)C=CSC(N)=N3)c2)oc2ccc(Br)cc12 [Compound 81]	7 nM		
C[C@@]1(c2cc(NC(=O)c3ncc(C#N)cc3F)ccc2F)C=CSC(N)=N1 [Compound 84]		≤ 1000 nM	
C/C(CO)=C1\C[C@@](C)(c2cc(NC(=O)c3ccc(C#N)cn3)ccc2F)N=C(N)S1 [Compound 85]		≤ 1000 nM	
C/C(=C1\C[C@@](C)(c2cc(NC(=O)c3ccc(C#N)cn3)ccc2F)N=C(N)S1)C(F)F [Compound 94]		≤ 1000 nM	
C=C1C[C@@](C)(c2cc(NC(=O)c3ccc(C#N)cn3)cnc2Cl)N=C(N)S1 [Compound 95]		≤ 1000 nM	
C/C(CN1CCOCC1)=C1\C[C@@](C)(c2cc(NC(=O)c3ccc(C#N)cn3)ccc2F)N=C(N)S1 [Compound 96]		≤ 1000 nM	
C/C(CN1CCCC1)=C1\C[C@@](C)(c2cc(NC(=O)c3ccc(C#N)cn3)ccc2F)N=C(N)S1 [Compound 98]		≤ 1000 nM	
C/C(CN(C)C)=C1\C[C@@](C)(c2cc(NC(=O)c3ccc(C#N)cn3)ccc2F)N=C(N)S1 [Compound 100]		≤ 1000 nM	
C=C1C[C@@](C)(c2cc(NC(=O)c3ncc(C#N)cc3F)cnc2Cl)N=C(N)S1 [Compound 101]	22 nM		
C=C1C[C@@](C)(c2cc(NC(=O)c3ccc(C#N)cn3)cnc2C)N=C(N)S1 [Compound 103]		≤ 1000 nM	
C=C1C[C@@](C)(c2cncc(NC(=O)c3ccc(C#N)cn3)c2)N=C(N)S1 [Compound 105]		≤ 1000 nM	
C=C1C[C@@](C)(c2cncc(NC(=O)c3ccc(C(F)(F)F)cn3)c2)N=C(N)S1 [Compound 107]		≤ 1000 nM	

From patent publication US8637504B2, “Sulfur-containing heterocyclic derivative having beta secretase inhibitory activity” (Shionogi & Co., Ltd., priority 2008, dated 2014)
